Experimental findings from ChEMBL document CHEMBL1201862, “PubChem BioAssay data set” (2004) are described below.

The structures appear in SMILES notation.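 Compound exposure: 48 hours, 5 concentrations, 96-well plates. Here, GI50 denotes the concentration required for 50% inhibition of growth.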 Active and inactive are the calls of the source. No stated cut-off is given here; in the data, active = GI50 up to about 1.1 µM and inactive = higher.

Among the test systems are NCI-H460; CAKI-1; HT-29; SR; U-251; UACC-257; OVCAR-5; SW-620; RPMI-8226; UACC-62; DU-145; NCI-H522; Malme-3M; SNB-75; CCRF-CEM; SK-OV-3; SK-MEL-28; NCI-H226; PC-3; SF-539.
Assay in all cases: NCI tumour cell line growth inhibition, 48 h

With `CCC1(CC)C(=O)NN(C(=O)c2ccccc2)C1=O`, the GI50 in the assay with NCI-H460, in the assay on CAKI-1, in the assay with HT-29, in the assay on SR, with U-251 and in the assay with UACC-257 was > 100 µM (inactive) each time. The GI50 in the assay with OVCAR-5, in the assay on SW-620, in the assay with RPMI-8226, with UACC-62, in the assay on DU-145 and with NCI-H522 was > 100 µM (inactive) in each case. Moreover, the GI50 in the assay with Malme-3M was > 100 µM (inactive); in the assay on SNB-75, 49.4 µM (inactive); in the assay with CCRF-CEM it was 95.7 µM (inactive); in the assay on SK-OV-3 it was > 100 µM (inactive); with SK-MEL-28, > 100 µM (inactive); in the assay on NCI-H226, > 100 µM (inactive). Further, the GI50 in the assay with PC-3 was > 100 µM (inactive).

As to `CCOc1snc(C(Cl)(Cl)Cl)c1Cl`, the GI50 in the assay on NCI-H460 was 26.9 µM (inactive); in the assay with CAKI-1, 12.3 µM (inactive); with HT-29 it was 15.5 µM (inactive); in the assay on SF-539 it was 60.5 µM (inactive); in the assay on SR it was 14 µM (inactive); with U-251 it was 27.7 µM (inactive). For the same compound, the GI50 in the assay with UACC-257 was 14.3 µM (inactive); with OVCAR-5 it was > 100 µM (inactive); in the assay with SW-620, 30.3 µM (inactive); with RPMI-8226, 15.5 µM (inactive); with UACC-62, 19.4 µM (inactive); in the assay with DU-145, 16.6 µM (inactive). The GI50 in the assay on Malme-3M was 22.2 µM (inactive); with SNB-75, 17.7 µM (inactive); in the assay with CCRF-CEM it was 17.3 µM (inactive); in the assay on SK-OV-3 it was 28.6 µM (inactive); in the assay on SK-MEL-28, 25.5 µM (inactive); in the assay on NCI-H226, 9.33 µM (inactive). Further, the GI50 in the assay on PC-3 is 28.4 µM (inactive).

As for `CC(CO)(CO)N1C(=O)C2C3c4ccccc4C(c4ccccc43)C2C1=O` (stereo not given), the GI50 with NCI-H460, with CAKI-1, in the assay with HT-29, with SF-539, in the assay on SR and in the assay with U-251 was > 100 µM (inactive) throughout. Besides, the GI50 with UACC-257 is > 100 µM (inactive); with OVCAR-5, > 100 µM (inactive); in the assay with SW-620, > 100 µM (inactive); in the assay with UACC-62 it was > 100 µM (inactive); in the assay with DU-145, 50.4 µM (inactive); in the assay on NCI-H522, > 100 µM (inactive). Also, the GI50 in the assay on Malme-3M is > 100 µM (inactive); with SNB-75, 25.4 µM (inactive); in the assay on CCRF-CEM it was > 100 µM (inactive); in the assay with SK-OV-3, > 100 µM (inactive); in the assay on SK-MEL-28, > 100 µM (inactive); in the assay with NCI-H226, > 100 µM (inactive). For the same compound, the GI50 in the assay with PC-3 is > 100 µM (inactive).

On to `C[C@]12CCC(=O)C=C1CC[C@@H]1C2CC[C@]2(C)c3nn(-c4ccc(F)cc4)nc3CC12` (stereo not given in full), for which the GI50 in the assay on NCI-H460 is > 100 µM (inactive); in the assay with CAKI-1 it was > 100 µM (inactive); in the assay on HT-29, > 100 µM (inactive); with SF-539, > 100 µM (inactive); with SR it was > 100 µM (inactive); in the assay on U-251 it was 53.2 µM (inactive). The GI50 with UACC-257, in the assay with OVCAR-5, with SW-620, with UACC-62, with DU-145 and with NCI-H522 was > 100 µM (inactive) in each case. The GI50 in the assay with Malme-3M is > 100 µM (inactive); in the assay on SNB-75, 38.1 µM (inactive); in the assay on CCRF-CEM, > 100 µM (inactive); in the assay with SK-OV-3 it was > 100 µM (inactive); with SK-MEL-28, > 100 µM (inactive); in the assay with NCI-H226, > 100 µM (inactive). For the same compound, the GI50 with PC-3 was > 100 µM (inactive).

In the case of `N#Cc1c(-c2ccc(Cl)cc2Cl)nc2[nH]nc(S)n2c1=O`, the GI50 with NCI-H460, in the assay with CAKI-1, in the assay on HT-29, in the assay on SR, in the assay on U-251 and with UACC-257 was > 100 µM (inactive) in each case. For the same compound, the GI50 in the assay with OVCAR-5, in the assay on SW-620, in the assay with RPMI-8226, with UACC-62, with DU-145 and in the assay with NCI-H522 was > 100 µM (inactive) each time. Further, the GI50 in the assay on Malme-3M, with CCRF-CEM, in the assay on SK-OV-3, with SK-MEL-28, with NCI-H226 and in the assay on PC-3 was > 100 µM (inactive) in each case.

Take `Cc1c2cnccc2nc2[nH]c3ccncc3c12`: the GI50 in the assay with NCI-H460 is 2.16 µM (inactive); in the assay with CAKI-1 it was 2.98 µM (inactive); with HT-29 it was 5.6 µM (inactive); in the assay with SF-539, 6.73 µM (inactive); in the assay with SR, 2.79 µM (inactive); with U-251, 4.68 µM (inactive). Further, the GI50 in the assay with UACC-257 is 20.1 µM (inactive); with OVCAR-5, 5.62 µM (inactive); with SW-620, 3.93 µM (inactive); in the assay on RPMI-8226 it was 2.24 µM (inactive); in the assay with UACC-62, 7 µM (inactive); with DU-145 it was 10.7 µM (inactive). The GI50 in the assay on NCI-H522 was 3.91 µM (inactive); with Malme-3M, 3.33 µM (inactive); with SNB-75 it was > 100 µM (inactive); with CCRF-CEM, 5.75 µM (inactive); in the assay on SK-OV-3, 21.5 µM (inactive); in the assay on SK-MEL-28, 32.4 µM (inactive). Moreover, in the assay with PC-3, the GI50 is 4.56 µM (inactive).

For `COC(=O)c1c(O)ccc2c1c1c(n2Cc2ccccc2OC)C(=O)c2ccccc2C1=O`, the GI50 was 3.78 µM (inactive) with NCI-H460; 15.8 µM (inactive) with CAKI-1; 8.18 µM (inactive) with HT-29; 19.3 µM (inactive) in the assay with SF-539; 0.0483 µM (active) with SR; 11 µM (inactive) in the assay on U-251. Besides, the GI50 in the assay on UACC-257 is 22.9 µM (inactive); with OVCAR-5 it was 21.1 µM (inactive); in the assay with SW-620, 14.2 µM (inactive); with RPMI-8226, 1.86 µM (inactive); with DU-145, 13.3 µM (inactive); in the assay with NCI-H522, 11 µM (inactive). Also, the GI50 in the assay with Malme-3M is 21 µM (inactive); with CCRF-CEM, 3.13 µM (inactive); with SK-OV-3, 16.3 µM (inactive); in the assay on SK-MEL-28, 15.8 µM (inactive); in the assay with NCI-H226 it was 15.3 µM (inactive); in the assay with PC-3, 10.4 µM (inactive).

Turning to `O=c1[nH]c2cc3cccnc3c(Cl)c2nc1CBr`, the GI50 is 19 µM (inactive) with NCI-H460; 15.1 µM (inactive) in the assay on CAKI-1; 19.5 µM (inactive) in the assay with HT-29; 11.2 µM (inactive) in the assay with SF-539; 6.18 µM (inactive) in the assay on SR; 15.4 µM (inactive) in the assay with U-251. Moreover, the GI50 in the assay on UACC-257 was 18.7 µM (inactive); in the assay with OVCAR-5, 20.3 µM (inactive); in the assay with SW-620, 11.4 µM (inactive); in the assay with RPMI-8226 it was 6.05 µM (inactive); in the assay with UACC-62, 12.4 µM (inactive); in the assay on DU-145 it was 15.6 µM (inactive). Also, the GI50 was 11 µM (inactive) in the assay with NCI-H522; 23.1 µM (inactive) in the assay on Malme-3M; 5.79 µM (inactive) in the assay on CCRF-CEM; 26 µM (inactive) with SK-OV-3; 19.1 µM (inactive) in the assay with NCI-H226; 15.7 µM (inactive) with PC-3.

Turning to `Cn1c(-c2ccc(/N=N/Nc3ccc(-c4n[nH]c(=S)n4C)cc3)cc2)n[nH]c1=S`, the GI50 was > 100 µM (inactive) with HT-29; 4.81 µM (inactive) in the assay on SR; 13.2 µM (inactive) with U-251; > 100 µM (inactive) in the assay with UACC-257; > 100 µM (inactive) with OVCAR-5; > 100 µM (inactive) in the assay with SW-620. Further, the GI50 is 2.79 µM (inactive) with RPMI-8226; 12.8 µM (inactive) with DU-145; 4.05 µM (inactive) in the assay with NCI-H522; > 100 µM (inactive) in the assay on Malme-3M; 16 µM (inactive) with SNB-75; 3.98 µM (inactive) in the assay with CCRF-CEM. For the same compound, the GI50 is 20.2 µM (inactive) with SK-OV-3, > 100 µM (inactive) in the assay on SK-MEL-28, 5.36 µM (inactive) in the assay on NCI-H226 and > 100 µM (inactive) in the assay with PC-3.

On to `N=C(N)NCCCC(NC(=O)c1cccc2c(=O)c3ccccc3[nH]c12)C(=O)O` (stereo not given), for which the GI50 in the assay with HT-29, in the assay on SR, in the assay with U-251, with OVCAR-5, in the assay on SW-620 and in the assay with RPMI-8226 was > 100 µM (inactive) throughout. The GI50 with UACC-62, with DU-145, with NCI-H522, in the assay with Malme-3M, with SNB-75 and in the assay with CCRF-CEM was > 100 µM (inactive) throughout. Moreover, the GI50 in the assay on SK-OV-3, in the assay with SK-MEL-28, in the assay on NCI-H226 and in the assay on PC-3 was > 100 µM (inactive) each time.

For the compound `COc1cc2c(cc1C)NC(=O)/C2=C/c1c(Cl)[nH]c2ccccc12`, the GI50 in the assay on NCI-H460 is 3.92 µM (inactive); with CAKI-1, 7.71 µM (inactive); with HT-29 it was 3.94 µM (inactive); in the assay on SF-539, 1.3 µM (inactive); in the assay on SR it was 3.55 µM (inactive); in the assay with U-251, 4.69 µM (inactive). In addition, the GI50 is 10.7 µM (inactive) in the assay with UACC-257; 7.87 µM (inactive) in the assay on OVCAR-5; 4.56 µM (inactive) with SW-620; 4.6 µM (inactive) with RPMI-8226; 3.57 µM (inactive) in the assay on UACC-62; 13.3 µM (inactive) in the assay with DU-145. The GI50 with NCI-H522 was 6.75 µM (inactive); with Malme-3M, 3.88 µM (inactive); with SNB-75 it was 7.87 µM (inactive); in the assay with CCRF-CEM it was 3.56 µM (inactive); with SK-OV-3, 1.47 µM (inactive); with SK-MEL-28, 7 µM (inactive). In addition, the GI50 in the assay on PC-3 was 5.21 µM (inactive).
